Experimental data as given in paper PMC2673089 (Journal of pharmaceutical sciences, 2008).

What was measured:
[1] = test system: pooled male Sprague–Dawley rat liver microsomes; assay: Metabolism in pooled male rat liver microsomes; assay type: in vitro ADME
muscarinic M1 receptors = details: read-out: M1 Ki; mean ± SEM; cited from earlier work
NET = details: read-out: NET Ki; mean ± SEM; cited from earlier work
human CYP2D6 = human CYP2D6 (Homo sapiens, UniProt P10635); assay: Metabolism by recombinant human CYP2D6 Supersomes; assay type: in vitro ADME
human CYP2C19 = human CYP2C19 (Homo sapiens, UniProt P33261); assay: Metabolism by recombinant human CYP2C19 Supersomes; assay type: in vitro ADME
Caco-2 monolayers = assay: Bidirectional transport and verapamil inhibition across Caco-2 monolayers; assay type: in vitro ADME
rat CYP2D1 = biological target: T1, rat CYP2D1 (Rattus norvegicus, UniProt P10633); assay: Metabolism by recombinant rat CYP2D1 Supersomes; assay type: in vitro ADME
T1 sequence (P10633 1-504): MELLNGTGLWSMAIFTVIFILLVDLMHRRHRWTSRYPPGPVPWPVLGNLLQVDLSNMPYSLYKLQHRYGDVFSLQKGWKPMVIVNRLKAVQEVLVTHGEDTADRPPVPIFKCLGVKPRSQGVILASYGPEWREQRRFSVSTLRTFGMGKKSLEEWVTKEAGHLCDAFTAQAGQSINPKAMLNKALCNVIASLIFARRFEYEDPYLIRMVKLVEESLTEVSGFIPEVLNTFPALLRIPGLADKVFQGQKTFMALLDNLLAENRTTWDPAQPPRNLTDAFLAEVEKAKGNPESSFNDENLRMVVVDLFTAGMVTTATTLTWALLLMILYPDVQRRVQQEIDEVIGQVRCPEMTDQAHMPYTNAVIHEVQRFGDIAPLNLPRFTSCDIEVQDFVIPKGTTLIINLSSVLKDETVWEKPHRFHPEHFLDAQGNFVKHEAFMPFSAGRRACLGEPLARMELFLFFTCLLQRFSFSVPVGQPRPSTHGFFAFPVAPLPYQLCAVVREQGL

SERT = details: read-out: SERT Ki; mean ± SEM; cited from earlier work
histamine H1 receptors = details: read-out: H1 Ki; mean ± SEM; cited from earlier work
rat CYP2C11 = biological target: T2, rat CYP2C11 (Rattus norvegicus, UniProt P08683); assay: Metabolism by recombinant rat CYP2C11 Supersomes; assay type: in vitro ADME
T2 sequence (P08683 1-500): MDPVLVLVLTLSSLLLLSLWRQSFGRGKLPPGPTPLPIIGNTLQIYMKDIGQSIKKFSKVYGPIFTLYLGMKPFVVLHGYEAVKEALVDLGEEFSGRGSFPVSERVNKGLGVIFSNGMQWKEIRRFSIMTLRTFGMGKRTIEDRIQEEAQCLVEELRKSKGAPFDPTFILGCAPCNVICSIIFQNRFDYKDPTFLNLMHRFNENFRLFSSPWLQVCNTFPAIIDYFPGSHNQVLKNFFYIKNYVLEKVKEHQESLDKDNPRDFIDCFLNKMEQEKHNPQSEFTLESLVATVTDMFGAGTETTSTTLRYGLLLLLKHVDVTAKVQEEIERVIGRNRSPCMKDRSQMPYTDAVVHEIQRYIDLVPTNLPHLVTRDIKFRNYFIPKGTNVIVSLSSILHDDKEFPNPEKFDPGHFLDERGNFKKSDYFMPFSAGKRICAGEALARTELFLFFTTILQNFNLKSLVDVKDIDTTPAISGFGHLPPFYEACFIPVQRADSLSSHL

DA uptake = details: read-out: DA Uptake IC50; mean ± SEM; cited from earlier work
[2] = Pharmacokinetics and brain uptake after i.v. dosing; assay type: in vivo, male Sprague–Dawley rats; details: for AUC0–1440 min (plasma): noncompartmental analysis
human CYP2E1 = human CYP2E1 (Homo sapiens, UniProt P05181); assay: Metabolism by recombinant human CYP2E1 Supersomes; assay type: in vitro ADME
[3] = test system: pooled human liver microsomes; assay: Metabolism in pooled human liver microsomes; assay type: in vitro ADME
MDCK-MDR1 monolayers = assay: Bidirectional transport and verapamil inhibition across MDCK-MDR1 monolayers; assay type: in vitro ADME
[4] = 0.1 mM, absence of verapamil, mean ± SD (n = 3)
[5] = population PK estimate (% CV), i.v. 5 and 10 mg/kg combined, n = 54 rats
[6] = MDCK-MDR1, 0.1 mM, absence of verapamil, mean ± SD (n = 3)

Sequence of human CYP2D6 (P10635 whole entry): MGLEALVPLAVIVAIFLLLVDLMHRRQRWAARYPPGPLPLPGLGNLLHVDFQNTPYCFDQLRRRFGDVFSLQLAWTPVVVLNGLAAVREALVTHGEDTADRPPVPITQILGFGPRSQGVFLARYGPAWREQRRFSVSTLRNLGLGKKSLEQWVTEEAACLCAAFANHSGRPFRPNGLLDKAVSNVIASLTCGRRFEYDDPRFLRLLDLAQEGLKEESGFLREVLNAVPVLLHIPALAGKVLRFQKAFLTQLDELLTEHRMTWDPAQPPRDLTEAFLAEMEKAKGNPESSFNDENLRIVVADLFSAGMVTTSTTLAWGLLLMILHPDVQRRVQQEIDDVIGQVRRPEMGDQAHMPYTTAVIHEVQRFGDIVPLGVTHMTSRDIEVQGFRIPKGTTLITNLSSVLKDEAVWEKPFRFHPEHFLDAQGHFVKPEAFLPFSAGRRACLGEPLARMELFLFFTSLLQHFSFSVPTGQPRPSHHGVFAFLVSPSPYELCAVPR
Sequence of human CYP2C19 (P33261 whole entry): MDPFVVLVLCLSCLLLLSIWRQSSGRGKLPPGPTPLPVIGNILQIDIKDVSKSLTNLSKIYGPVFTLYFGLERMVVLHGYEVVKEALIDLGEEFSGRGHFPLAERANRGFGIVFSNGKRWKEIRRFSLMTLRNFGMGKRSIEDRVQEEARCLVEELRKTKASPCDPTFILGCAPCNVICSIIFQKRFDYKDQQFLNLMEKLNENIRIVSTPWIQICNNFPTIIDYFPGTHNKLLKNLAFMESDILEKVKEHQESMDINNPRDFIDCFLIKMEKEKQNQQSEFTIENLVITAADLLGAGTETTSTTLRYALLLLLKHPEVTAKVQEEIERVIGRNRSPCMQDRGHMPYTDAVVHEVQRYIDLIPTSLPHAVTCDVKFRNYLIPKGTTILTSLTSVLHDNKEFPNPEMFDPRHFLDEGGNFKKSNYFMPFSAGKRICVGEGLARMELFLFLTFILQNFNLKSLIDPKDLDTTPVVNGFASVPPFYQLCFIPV
Sequence of human CYP2E1 (P05181 whole entry): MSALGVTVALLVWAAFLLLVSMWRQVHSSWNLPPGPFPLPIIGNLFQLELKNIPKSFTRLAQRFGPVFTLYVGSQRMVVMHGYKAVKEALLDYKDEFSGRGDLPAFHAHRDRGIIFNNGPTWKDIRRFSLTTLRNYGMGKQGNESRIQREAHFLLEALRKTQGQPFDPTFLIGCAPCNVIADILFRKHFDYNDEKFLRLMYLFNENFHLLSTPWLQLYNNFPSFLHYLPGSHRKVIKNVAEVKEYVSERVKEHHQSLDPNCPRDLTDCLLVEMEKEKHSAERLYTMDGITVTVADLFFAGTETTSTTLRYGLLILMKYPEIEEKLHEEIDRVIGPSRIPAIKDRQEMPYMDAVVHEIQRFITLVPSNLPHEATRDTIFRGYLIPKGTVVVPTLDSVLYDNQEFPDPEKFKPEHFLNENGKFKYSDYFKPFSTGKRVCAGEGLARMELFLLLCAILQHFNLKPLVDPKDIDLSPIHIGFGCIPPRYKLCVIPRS

Structure (SMILES): CC(C)[C@@H](N)CN1C2CCC1CC(OC(c1ccc(F)cc1)c1ccc(F)cc1)C2 (stereo partly drawn) [GA2-50, N-((R)-2″-amino-3″-methyl-n-butyl)-3α-[(bis-4′-fluorophenyl)methoxy]tropane]
- Intrinsic Clearance ([1]; Pooled male RLM 0.8 mg/mL, 4 μM, mean ± SD n = 3): 5.96 ± 0.56 microliters per minute per milligram of protein
- Intrinsic clearance in pooled male RLM relative to HLM ([1]; higher in rat than in human liver microsomes): 1.9 fold
- Intrinsic clearance, fold lower than 4′,4″-diCl BZT ([1]; pooled male rat liver microsomes, comparator values ref 26): 3.6 fold
- Ki (muscarinic M1 receptors): 4.02 ± 0.592 µM
- Ki (NET): 2130 ± 160 nM
- Intrinsic Clearance (human CYP2D6; Human CYP 2D6 50 pmol/mL, 4 μM): 0.15 ± 0.02 (b) microliters per minute per picomole of P450
- Substrate disappearance after 60 min incubation vs control (human CYP2D6; human CYP2D6, 10 μM, 50 pmol/mL P450, p < 0.05): statistically significant disappearance
- Intrinsic Clearance (human CYP2C19; Human CYP 2C19 50 pmol/mL, 4 μM): 0.10 ± 0.01 (c) microliters per minute per picomole of P450
- Substrate disappearance after 60 min incubation vs control (human CYP2C19; human CYP2C19, 10 μM, 50 pmol/mL P450, p < 0.05): statistically significant disappearance
- Permeability relative to JHW 025 (Caco-2 monolayers): > 4 fold
- Efflux Ratio (Caco-2 monolayers; 0.1 mM, Papp(B-A)/Papp(A-B)): 8.3
- Papp A-B (Caco-2 monolayers; [4]): 1.37 ± 0.08 × 10^−6 cm/s
- Papp B-A (Caco-2 monolayers; [4]): 11.36 ± 1.41 × 10^−6 cm/s
- Enhancement ratio of A-B transport by verapamil (Caco-2 monolayers; verapamil 200 μM): 3.4
- Intrinsic Clearance (rat CYP2D1; Rat CYP 2D1 50 pmol/mL, 4 μM): 0.11 ± 0.02 (c) microliters per minute per picomole of P450
- Substrate disappearance after 60 min incubation vs control (rat CYP2D1; rat CYP2D1, 10 μM, 50 pmol/mL P450, p < 0.05): statistically significant disappearance
- Ki (SERT): 3.87 ± 0.135 µM
- Ki (histamine H1 receptors): 218 ± 15.5 nM
- Intrinsic Clearance (rat CYP2C11; Rat CYP 2C11 50 pmol/mL, 4 μM): 0.23 ± 0.01 (a) microliters per minute per picomole of P450
- Substrate disappearance after 60 min incubation vs control (rat CYP2C11; rat CYP2C11, 10 μM, 50 pmol/mL P450, p < 0.05): statistically significant disappearance
- Intrinsic clearance, fold lower than 4′,4″-diCl BZT (rat CYP2C11; rat CYP2C11, comparator values ref 26): 6.3 fold
- IC50 (DA uptake): 20.7 ± 2.85 nM
- brain-to-plasma partition coefficient (Ri) ([2]; 5 mg/kg i.v., AUC0–1440 min brain/plasma): 10.1
- AUC0–1440 min (plasma) ([2]; 5 mg/kg i.v.): 141.8 µg·min/mL
- maximal total brain concentration ([2]; 10 mg/kg i.v.): approximately 5 μg/g
- brain-to-plasma partition coefficient (Ri) ([2]; 10 mg/kg i.v., AUC0–1440 min brain/plasma): 9.6
- AUC0–1440 min (plasma) ([2]; 10 mg/kg i.v.): 258.0 µg·min/mL
- Vss ([2]; Table 4, secondary parameter from NONMEM empirical Bayes estimates, i.v., rats): 37.3 L/h/kg
- signs of toxicity ([2]; i.v. 5 or 10 mg/kg): did not show any signs of toxicity
- brain-to-plasma partition coefficient (Ri) ([2]; overall, dose not specified): ~ 10
- CL [2, 5]: 1.34 (9.3) L/h/kg
- Q [2, 5]: 7.8 (19.9) L/h/kg
- Vc [2, 5]: 8.09 (13.6) L/kg
- Vp [2, 5]: 27.9 (10.5) L/kg
- t1/2 (elimination half-life) ([2]; secondary parameter from NONMEM empirical Bayes estimates, i.v., rats): 19.2 h
- Intrinsic Clearance (human CYP2E1; Human CYP 2E1 50 pmol/mL, 4 μM): 0.09 ± 0.02 (c,d) microliters per minute per picomole of P450
- Substrate disappearance after 60 min incubation vs control (human CYP2E1; human CYP2E1, 10 μM, 50 pmol/mL P450, p < 0.05): statistically significant disappearance
- Intrinsic Clearance ([3]; Pooled HLM 0.8 mg/mL, 4 μM, mean ± SD n = 3): 3.17 ± 1.18 microliters per minute per milligram of protein
- Intrinsic clearance, fold lower than 4′,4″-diCl BZT ([3]; pooled human liver microsomes, comparator values ref 26): 4.0 fold
- Permeability relative to JHW 025 (MDCK-MDR1 monolayers; MDCK-MDR1): around 6.8 fold
- Efflux Ratio (MDCK-MDR1 monolayers; MDCK-MDR1, 0.1 mM, Papp(B-A)/Papp(A-B)): 3.4
- Papp A-B (MDCK-MDR1 monolayers; [6]): 34.01 ± 2.78 × 10^−6 cm/s
- Papp B-A (MDCK-MDR1 monolayers; [6]): 116.97 ± 5.23 × 10^−6 cm/s
- Enhancement ratio of A-B transport by verapamil (MDCK-MDR1 monolayers; MDCK-MDR1, verapamil 200 μM): 2.3
- P-gp substrate status (MDCK-MDR1 monolayers; polarized transport across MDCK-MDR1 and Caco-2, verapamil-sensitive): substrate for the efflux transporter P-gp
